The record followed here is patent publication US20240241099A1, “METHOD FOR IDENTIFYING PI3 KINASE-ALPHA INHIBITORS” (UNIVERSITÄT BASEL, priority 2021, published 2024).

In data set [1] the test system is AktSer473 phosphorylation in SKOV3 ovarian cancer cells. The data set can be described thus: Cellular washout study in SKOV3 cells, P-AktSer473 by immunoblot. Format: cell-based. The settings on record: 2.5 μM for 2 hours, then washout. On the procedure: (§1) The experiments were performed in triplicate; CNX-1351 was used as positive control (irreversible inhibitor) and PQR514 as negative control (reversible inhibitor). (b) Metabolic stability of 19, 22 and CNX-1351 using rat liver microsomes. The time-dependent loss of test items (1 μM) with liver microsomes (0.5 mg microsomal protein/mL) and the percentages of test item remaining after 60 minutes of incubation were measured, (n=2).
The experiments were performed in triplicate; CNX-1351 was used as positive control (irreversible inhibitor) and PQR514 as negative control (reversible inhibitor).
The library of acrylamide-containing compounds was evaluated for PI3K signaling in SKOV3 ovarian cancer cells. […] Inhibition of AktSer473 phosphorylation measured by immunoblot analysis was used as an indicator of inhibition of PI3K signaling. Cells were incubated with the drugs (2.5 μM each) for 2 hours.
The library of enone-containing compounds was evaluated for PI3K signaling in SKOV3 ovarian cancer cells. […] Inhibition of AktSer473 phosphorylation measured by immunoblot analysis was used as an indicator of inhibition of PI3K signaling. Cells were incubated with the drugs (2.5 μM each) for 2 hours.
On the technique in general: A western blot detects proteins with antibodies after separation by electrophoresis.

Data set [2] is described as follows: Metabolic stability in rat liver microsomes. The settings on record: rat liver microsomes 0.5 mg protein/mL, 1 μM, 60 minutes. Format: in vitro ADME. As to the method: as §1
The metabolic stability of 19, 22 and CNX-1351 was evaluated in vitro in rat liver microsomes.
(Microsomes from liver hold many membrane-bound enzymes, among them those of drug oxidation.)

Data set [3] deals with PKB phosphorylation on Ser473 in SKOV3 cells. Nature of the data set: In-cell Western assay of PKB Ser473 phosphorylation in SKOV3 cells. Format: cell-based. The conditions noted are these: n = 3, read-out: pPKB S473 IC50.
The next data set deals with PI3Kα (Homo sapiens, UniProt P42336). The data set can be described thus: TR-FRET tracer displacement / time-dependent inhibition (IC50 shift) assay. Format: binding. As to the method:
The B-methyl substituted enone (2) and its corresponding moderately electrophilic derivative, β,β-dimethyl enone (3) were selected to explore the target space. A collection of compounds with pairwise matched linkers but either fast (2, 10-12) or moderate (3, 13-15) reacting Michael acceptors were synthesized (FIG. 3A). A time-dependent inhibition (IC50 shift) assay with five pre-incubation times was designed to identify covalent, time-dependent inhibitors. For compounds bearing a fast-reacting warhead (2, 10-12) a significant IC50 shift was observed also for compounds having their Michael acceptor at >4 Å from the cysteine thiol (FIG. 3E). […] The increased efficiency in covalent bond formation for 12 is due to the irreversible binding rather than an improvement in reversible affinity (see Ki values in FIG. 3D). […]
The library was tested for cellular potency on inhibition of PKB phorphorilation, considered as an indicator of inhibition of PI3K signaling. Time-resolved fluorescence resonance (TR-FRET) tracer displacement assay was used to determine the rate constant for irreversible inactivation (kinact) and the second order rate constant typically used to characterize the covalent binding of irreversible inhibitors to the target protein (kinact/Ki). […]
(In TR-FRET formats the signal depends on donor and acceptor labels being close together.)

Sequence of PI3Kα (P42336 whole entry): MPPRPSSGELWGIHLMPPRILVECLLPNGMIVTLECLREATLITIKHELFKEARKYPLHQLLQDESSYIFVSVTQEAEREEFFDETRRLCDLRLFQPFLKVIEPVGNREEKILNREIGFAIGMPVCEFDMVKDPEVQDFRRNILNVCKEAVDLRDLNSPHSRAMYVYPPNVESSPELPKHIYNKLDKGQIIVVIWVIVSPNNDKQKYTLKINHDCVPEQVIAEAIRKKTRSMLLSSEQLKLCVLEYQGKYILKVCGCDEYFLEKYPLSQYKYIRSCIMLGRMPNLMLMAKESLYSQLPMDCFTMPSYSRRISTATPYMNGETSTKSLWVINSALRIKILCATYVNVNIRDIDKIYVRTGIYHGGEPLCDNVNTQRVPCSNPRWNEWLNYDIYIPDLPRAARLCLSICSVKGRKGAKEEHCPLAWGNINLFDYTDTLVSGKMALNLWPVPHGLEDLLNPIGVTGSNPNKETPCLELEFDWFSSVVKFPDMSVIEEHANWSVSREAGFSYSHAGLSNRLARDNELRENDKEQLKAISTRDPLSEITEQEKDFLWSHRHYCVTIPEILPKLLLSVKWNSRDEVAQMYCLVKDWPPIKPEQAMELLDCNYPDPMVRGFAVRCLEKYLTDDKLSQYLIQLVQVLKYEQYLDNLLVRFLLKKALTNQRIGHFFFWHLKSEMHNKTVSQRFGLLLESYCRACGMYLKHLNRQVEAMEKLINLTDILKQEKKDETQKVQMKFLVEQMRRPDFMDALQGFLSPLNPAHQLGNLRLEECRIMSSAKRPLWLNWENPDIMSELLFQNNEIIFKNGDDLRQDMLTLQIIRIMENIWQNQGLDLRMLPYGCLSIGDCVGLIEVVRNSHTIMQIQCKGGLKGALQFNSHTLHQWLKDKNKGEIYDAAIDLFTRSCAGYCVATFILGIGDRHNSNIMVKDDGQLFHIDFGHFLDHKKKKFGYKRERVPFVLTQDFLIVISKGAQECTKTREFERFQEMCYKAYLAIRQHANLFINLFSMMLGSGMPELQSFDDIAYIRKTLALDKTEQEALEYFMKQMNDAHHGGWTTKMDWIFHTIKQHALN
Sequence of PI3Kα (P27986 whole entry partner): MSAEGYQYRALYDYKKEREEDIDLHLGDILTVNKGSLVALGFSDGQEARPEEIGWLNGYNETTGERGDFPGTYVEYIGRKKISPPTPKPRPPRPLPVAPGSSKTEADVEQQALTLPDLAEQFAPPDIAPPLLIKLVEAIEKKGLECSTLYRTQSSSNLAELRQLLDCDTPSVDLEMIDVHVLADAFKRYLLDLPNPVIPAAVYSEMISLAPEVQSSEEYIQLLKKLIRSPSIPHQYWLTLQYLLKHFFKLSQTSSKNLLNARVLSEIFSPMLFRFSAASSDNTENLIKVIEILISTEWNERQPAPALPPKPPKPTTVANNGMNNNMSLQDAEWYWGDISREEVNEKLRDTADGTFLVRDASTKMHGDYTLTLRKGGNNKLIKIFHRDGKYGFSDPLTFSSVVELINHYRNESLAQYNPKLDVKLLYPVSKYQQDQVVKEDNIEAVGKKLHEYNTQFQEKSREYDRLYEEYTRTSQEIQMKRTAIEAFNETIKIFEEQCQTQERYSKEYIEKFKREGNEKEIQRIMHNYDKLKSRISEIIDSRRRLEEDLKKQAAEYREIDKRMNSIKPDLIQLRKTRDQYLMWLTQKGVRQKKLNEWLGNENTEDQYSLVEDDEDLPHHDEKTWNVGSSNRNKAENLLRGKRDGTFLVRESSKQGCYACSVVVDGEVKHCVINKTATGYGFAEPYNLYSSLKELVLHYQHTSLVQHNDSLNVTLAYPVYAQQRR

As to `Nc1ncc(-c2nc(N3CCOCC3)nc(N3CCOCC3)n2)c(C(F)F)n1` [PQR514], the “P-AktSer473 signaling after drug washout” value in data set [1] was “immediately recovered”.
In the case of `CC(C)=CC(=O)CCC(=O)N1CCN(Cc2cc3nc(-c4cccc5[nH]ncc45)nc(N4CCOCC4)c3s2)CC1` [CNX-1351], in data set [2], the metabolic stability entry is “rapidly metabolized”. In addition, in data set [3], the half-maximal inhibitory concentration (IC50) stood at 290 nM. In data set [1], the “P-AktSer473 signaling after drug washout” value is “prolonged inhibition”. Besides, on PI3Kα (TR-FRET efficiency of covalent bond formation), the “kinact/Ki, [nM^−1s^−1]” value was determined as 1.73e-05 nM⁻¹ s⁻¹. In addition, the “kinact, [s^−1]” value at PI3Kα (TR-FRET rate constant for irreversible inactivation) was 0.000657 s⁻¹.

As usually defined, the IC50 is the midpoint of a concentration-inhibition curve.
